# Experimental data taken from patent US20160243096A1, “METHODS OF TREATING ORTH[…]” (Emergent Virology LLC, priority 2009, published 2016).
# Experiments:
# [1] = test system: Influenza A virus H3N2 (Hong Kong); assay: Inhibition of infectivity / virus yield reduction in MDCK cells; assay type: cell-based; conditions: virus yield reduced by 1 log10, 3 days
# Description: Table provides data for inhibition of infectivity of Influenza A virus H3N2 (Hong Kong) for NB-DNJ (UV-1), NN-DNJ (UV-2), N7-O-DNJ (UV-3), N9-DNJ (UV-4) and NAP-DNJ (UV-5).
# Procedure. The compounds were screened for inhibition of generation of infectious virus was conducted on the UV compounds at concentrations up to 500 μM. The influenza virus, Influenza A H3N2, Brisbane/10/2007 strain was evaluated for virus inhibition. MDCK cells (Madin Darby canine kidney cell line) obtained from American Type Culture Collection (ATCC, Manassas, Va.). Cells were cultured in U1traMDCK, supplemented with 2 mM L-glutamine, 1 μg/ml TPCK-treated trypsin and 100 U/ml penicillin, 100 μg/ml streptomycin in cell culture treated 24-well flat bottom plates at 37° C. in a 5% CO2 incubator for 24 hr or until 80% confluent prior to assay. Cells were pretreated with compounds in a final concentration of 0.5% DMSO for 1 hr followed by addition of virus inoculums. Three wells per virus are saved for a virus-only control. Only medium is added in exchange for compound in these wells, and virus is added after the initial 1 hr incubation. Three days later virus containing supernatants were collected and effect on reduction of virus yield are tested by assaying frozen and thawed eluates from each well for virus titer by serial dilution onto monolayers of MDCK susceptible cells.
# [2] = Iminosugar safety study in mice; assay type: in vivo, BALB/c and C57/B1/6 mice; conditions: for weight loss compared to vehicle only control: BALB/c and C57/B1/6 mice, oral 100 and 10 mg/kg twice a day for 7 days; for clinical signs: highest concentration (100 mg/kg twice a day, 7 days)
# Description: Methods and Discussion: BALB/c and C57/B1/6 mice were given oral suspensions of UV-1, UV-4, UV-5, twice a day for seven days, in 100 ul per mouse at 100 and 10 mg/kg (2 mg and 0.2 mg/mouse, respectively) 8 hours apart for 7 days, and then monitored for weight loss and general health. […] The results of these experiments are in FIG. 6.
# [3] = test system: INFV A H1N1 (strain A/Texas); assay: Influenza in vivo study: survival of infected mice; design: species or system Balb/c mice; conditions: ~5 LD50 intranasal, monitored 15 days
# Description: UV-4 was administered as a free drug dissolved in acidic water. The compound was given at 100 mg/kg and 10 mg/kg by the oral route (intragastric via oral gavage—IG) twice daily. Balb/c mice received the compound for 10 days. Mice were infected with INFV A H1N1 (strain A/Texas) intranasally with ˜5 LD50 30 minutes following the first iminosugar dose.
# (§1) Animals were monitored for 15 days. Animals were weighed once per day, and given health scores 2X per day. Animals displaying severe illness (as determined by 30% weight loss, extreme lethargy, ruffled coat, or paralysis) were euthanized.
# [4] = test system: INFV A H1N1 (strain A/Texas); assay: Second influenza in vivo study: survival after H1/N1 (Texas) virus challenge; design: species or system Balb/c mice; conditions: 100 mg/kg TID oral for 10 days, ~1 LD90
# Description: UV-4 was administered to the treated mice as a free drug dissolved in acidic water by the oral route (intragastric via oral gavage—IG) 100 mg/kg, TID for 10 days. The control mice received water orally, TID, instead of UV-4. Balb/c mice were used both for the treated mice and the control mice. Each mouse was microchipped for individual identity.
# Mice were infected with INFV A H1N1 (strain A/Texas) intranasally with ˜1 LD90.
# as §1, with “2×” for “2X”, “euthanized. The endpoint was considered a death of the animal or a more than 30% weight loss.” for “euthanized.”
# The studied mice include the following groups (10 mice per group):
# 1) 1 hr pre-treatment. These mice received their first UV-4 dose 1 hr before being infected with INFV A H1N1 (strain A/Texas).
# 2) 24 hr post-treatment. These mice received their first UV-4 dose 24 hr after being infected with INFV A H1N1 (strain A/Texas).
# 3) 48 hr post treatment. These mice received their first UV-4 48 hr after being infected with INFV A H1N1 (strain A/Texas).
# 4) 96 hr post treatment. These mice received their first UV-4 96 hr after being infected with INFV A H1N1 (strain A/Texas).
Compound,IC90 [1] [nM],weight loss compared to vehicle only control [2],also measured
"CCCCN1C[C@H](O)[C@@H](O)[C@H](O)[C@H]1CO [UV-1, N-Butyl deoxynojirimycin]",20000,did not show any significant signs of weight loss,
"CCCCCCCCCN1C[C@H](O)[C@@H](O)[C@H](O)[C@H]1CO [UV-2, N-Nonyl deoxynojirimycin]",200,,
"CCCOCCCCCCN1C[C@H](O)[C@@H](O)[C@H](O)[C@H]1CO [UV-3, N-(7-Oxadecyl)deoxynojirimycin]",200,,
"COCCCCCCCCCN1C[C@H](O)[C@@H](O)[C@H](O)[C@H]1CO [UV-4, N-(9-Methoxynonyl)deoxynojirimycin]",200,did not show any significant signs of weight loss,survival rate ([3]; 10 mg/kg BID oral gavage for 10 days): 90%; survival rate ([3]; 100 mg/kg BID oral gavage for 10 days): 90%; survival ([4]; first dose 1 hr before infection): 100%; survival ([4]; first dose 24 hr after infection): 100%; survival ([4]; first dose 48 hr after infection): 90%; survival ([4]; first dose 96 hr after infection): 90%
"[N-]=[N+]=Nc1ccc(NCCCCCCN2C[C@H](O)[C@@H](O)[C@H](O)[C@H]2CO)c([N+](=O)[O-])c1 [UV-5, N-(N-{4′-azido-2′-nitrophenyl}-6-aminohexyl)deoxynojirimycin]",200,did not show any significant signs of weight loss,"clinical signs ([2]; BALB/c mice): signs of diarrhea, red urine, and a ruffled appearance; clinical signs ([2]; C57/B1/6 mice): these same symptoms but without the ruffled look"
